# Experimental data published in publication PMC6116703, “Ethenesulfonyl fluoride derivatives as telomerase inhibitors: structure-based design, SAR, and anticancer evaluation in vitro” (Journal of Enzyme Inhibition and Medicinal Chemistry, 2018).
# Like-named read-outs stand apart in the source and are kept apart here.
# Experiments:
# human melanoma cell A375 = assay: Cell proliferation (MTT) assay, A375; assay type: cell-based
# Method: (§1) The antiproliferative activities evaluation was conducted by using a modified procedure as described in the literature. Briefly, target tumour cells were grown to log phase in RPMI 1640 medium supplemented with 10% fetal bovine serum. After diluting to 3 × 10^4 cells mL^−1 with the complete medium, 100 µL of the obtained cell suspension was added to each well of 96-well culture plates. The subsequent incubation was performed at 37 °C, 5% CO2 atmosphere for 24 h before subjecting to antiproliferation assessment. The tested samples at pre-set concentrations were added to six wells with Doxorubicin (AMD) co-assayed as a positive reference. After 48 h of exposure period, 25 µL of PBS containing 2.5 mg·mL^−1 of MTT was added to each well. After 4 h, the medium was replaced by 150 µL DMSO to dissolve the purple formazan crystals produced. The absorbance at 570 nm of each well was measured using an ELISA plate reader. The data represented the mean of three experiments in triplicate and were expressed as means ± SD using Student’s test.
# telomerase = biological target: T1, telomerase (Homo sapiens, UniProt O14746); assay: Telomerase activity TRAP-PCR-ELISA assay (A375 cell extract); assay type: biochemical; settings: TRAP-PCR-ELISA, A375 cells, 24 h treatment
# T1 construct: endogenous in cells; host or cells: A375 human melanoma cells
# T1 sequence (O14746 whole entry): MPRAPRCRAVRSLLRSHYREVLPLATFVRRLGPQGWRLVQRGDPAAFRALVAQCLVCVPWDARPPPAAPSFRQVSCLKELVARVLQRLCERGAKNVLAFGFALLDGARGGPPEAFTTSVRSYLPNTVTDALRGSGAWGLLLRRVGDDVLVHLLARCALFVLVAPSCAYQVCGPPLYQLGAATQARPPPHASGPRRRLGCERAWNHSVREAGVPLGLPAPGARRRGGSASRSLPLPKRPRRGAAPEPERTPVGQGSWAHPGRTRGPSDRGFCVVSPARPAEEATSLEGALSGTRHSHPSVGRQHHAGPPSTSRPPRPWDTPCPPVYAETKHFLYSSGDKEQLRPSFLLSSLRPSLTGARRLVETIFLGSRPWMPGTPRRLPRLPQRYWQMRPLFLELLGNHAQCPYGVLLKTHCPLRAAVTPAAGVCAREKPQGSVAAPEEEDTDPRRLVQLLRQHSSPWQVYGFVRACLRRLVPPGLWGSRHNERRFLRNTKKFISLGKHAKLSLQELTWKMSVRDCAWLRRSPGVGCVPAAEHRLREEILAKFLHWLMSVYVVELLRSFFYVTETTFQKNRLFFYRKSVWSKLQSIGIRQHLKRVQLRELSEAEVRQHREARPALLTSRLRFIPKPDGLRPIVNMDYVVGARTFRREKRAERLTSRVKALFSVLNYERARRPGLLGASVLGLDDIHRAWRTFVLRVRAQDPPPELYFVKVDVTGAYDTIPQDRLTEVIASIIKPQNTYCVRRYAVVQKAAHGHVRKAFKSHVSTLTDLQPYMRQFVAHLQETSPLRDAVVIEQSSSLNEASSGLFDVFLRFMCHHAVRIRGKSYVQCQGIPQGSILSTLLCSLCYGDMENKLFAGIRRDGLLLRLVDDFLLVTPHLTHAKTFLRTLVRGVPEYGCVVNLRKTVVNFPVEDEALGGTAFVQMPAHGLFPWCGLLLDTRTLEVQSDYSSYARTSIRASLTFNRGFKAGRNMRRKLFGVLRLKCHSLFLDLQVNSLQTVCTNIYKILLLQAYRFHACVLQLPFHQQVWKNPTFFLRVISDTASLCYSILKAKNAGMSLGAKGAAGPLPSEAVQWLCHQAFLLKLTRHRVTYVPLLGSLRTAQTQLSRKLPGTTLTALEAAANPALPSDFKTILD
# Method: Thirty-six compounds were tested in a search for inhibitors of telomerase activity using the TRAP-PCR-ELISA assay. In detail, the A375 cells were firstly maintained in RPMI 1640 buffer (Hyclone, Miami, FL), supplemented with 10% fetal bovineserum (GIBCO, New York, NY), streptomycin (0.1 mg/mL) and penicillin (100 IU/mL) at 37 °C in a humidified atmosphere containing 5% CO2. After trypsinisation, 5 × 10^4 cultured cells in logarithmic growth were seeded into T25 flasks (Corning, New York, NY) and cultured to allow to adherence. […] After 24 h treatment, the cells were harvested by cell scraper orderly followed by washing once with PBS. The cells were lysed in 150 µL RIPA cell lysis buffer (Santa Cruz, Santa Cruz, CA), and incubated on ice for 30 min. The cellular supernatants were obtained via centrifugation at 12,000g for 20 min at 4 °C and stored at –80 °C. The TRAP-PCR-ELISA assay was performed using a telomerase detection kit (Roche, Basel, Switzerland) according to the manufacturer’s protocol. In brief, 2 µL of cell extracts were mixed with 48 µL TRAP reaction mixtures. TRAP primers and Taq polymerase are incubated at 25 °C for 30 min. PCR was then initiated at 94 °C, 120 s for predenaturation and performed using 35 cycles each consisting of 94 °C for 30 s, 50 °C for 30 s, 72 °C for 90 s. Then 20 µL of PCR products were hybridised to a digoxigenin (DIG)-labelled telomeric repeat specific detection probe. And the PCR products were immobilised via the biotin-labelled primer to a streptavidin-coated microtiter plate subsequently. The immobilised DNA fragments were detected with a peroxidase-conjugated anti-DIG antibody and visualised following the addition of the stop regent. The microtitre plate was assessed on TECAN Infinite M200 microplate reader (Mannedorf, Switzerland) at a wavelength of 490 nm, and the final value were presented as mean ± SD[23].
# [1] = system: human hepatoma cell SMMC-7721; assay: Cell proliferation (MTT) assay, SMMC-7721; assay type: cell-based; settings: read-out: IC50 SMMC-7721
# Method: as §1
# [2] = system: human breast cancer cell MDA-MB-231; assay: Cell proliferation (MTT) assay, MDA-MB-231; assay type: cell-based
# Method: as §1
# [3] = Homo sapiens, A-375, 48 h, read-out: IC50 A375, antiproliferative, MTT, 48 h exposure
# [4] = IC50 inhibitory activity against telomerase
# [5] = Homo sapiens, MDA-MB-231, 48 h, read-out: IC50 MDA-MB-231, antiproliferative, MTT, 48 h exposure
# [6] = antiproliferative, MTT, 48 h exposure, read-out: IC50 A375
# [7] = antiproliferative, MTT, 48 h exposure
# [8] = antiproliferative, MTT, 48 h exposure, read-out: IC50 MDA-MB-231
Compound,IC50 (telomerase; [4]),IC50 (human melanoma cell A375; [6]),"IC50 [1, 7]","IC50 [2, 8]",other results
O=S(=O)(F)/C=C/c1cc(O)cc(O)c1 [Compound 36],1.44 ± 0.22 µM,–,–,–,"IC50 (human melanoma cell A375; [3]): 4.01 ± 0.68 µM; IC50 ([1]; Homo sapiens, SMMC-7721, 48 h): 29 ± 0.78 µM; IC50 [2, 5]: 37.2 ± 1.4 µM"
O=S(=O)(F)/C=C/C=C/c1ccc2ccccc2c1 [Compound 55],47.2 ± 1.52 µM,–,–,–,"IC50 (human melanoma cell A375; [3]): 5.87 ± 0.2 µM; IC50 ([1]; Homo sapiens, SMMC-7721, 48 h): 34.1 ± 1.45 µM; IC50 [2, 5]: 14.3 ± 1.07 µM"
O=S(=O)(F)/C=C/C=C/c1ccc(C(F)(F)F)cc1 [Compound 52],–,13.3 ± 0.87 µM,24.3 ± 1.19 µM,15.3 ± 0.82 µM,–
O=S(=O)(F)/C=C/c1ccccc1O [Compound 35],–,7.41 ± 0.77 µM,36.5 ± 0.7 µM,7.41 ± 0.33 µM,–
Cc1ccc(/C=C/S(=O)(=O)F)c(C)c1 [Compound 27],–,7.83 ± 0.4 µM,50.7 ± 1.82 µM,39.8 ± 2.55 µM,–
N#Cc1ccc(/C=C/S(=O)(=O)F)cc1 [Compound 13],39 ± 1.29 µM,–,–,–,–
O=[N+]([O-])c1ccc(/C=C/S(=O)(=O)F)cc1 [Compound 12],2.77 ± 0.58 µM,–,–,–,"IC50 (human melanoma cell A375; [3]): ~3 µM; IC50 (human melanoma cell A375; read-out: IC50 A375, antiproliferative, MTT, 48 h exposure): 3.58 ± 0.11 µM; IC50 [2, 5]: 4.25 ± 0.32 µM"
O=S(=O)(F)/C=C/c1ccc(I)cc1 [Compound 63],45.3 ± 1.87 µM,–,–,–,–
O=C1C=C(/C=C/S(=O)(=O)F)CCC1 [Compound 58],–,–,–,–,IC50 (telomerase; read-out: IC50 inhibitory activity against telomerase): 39.9 ± 1.29 µM
O=S(=O)(F)/C=C/c1cc2ccccc2o1 [Compound 39],48.8 ± 2.22 µM,–,–,–,–
O=S(=O)(F)/C=C/c1ccc(F)cc1F [Compound 32],–,12.3 ± 0.41 µM,27 ± 0.9 µM,16.1 ± 0.41 µM,–
O=S(=O)(F)/C=C/c1cccc(C(F)(F)F)c1 [Compound 20],4.17 ± 0.39 µM,–,–,–,"IC50 (human melanoma cell A375; [3]): 10.4 ± 0.82 µM; IC50 ([1]; Homo sapiens, SMMC-7721, 48 h): 20 ± 1.74 µM; IC50 [2, 5]: 3.18 ± 0.2 µM"
CC(C)S(=O)(=O)c1ccc(/C=C/S(=O)(=O)F)cc1 [Compound 82],37.9 ± 2.19 µM,–,–,–,"IC50 (human melanoma cell A375; [3]): 24.2 ± 0.6 µM; IC50 ([1]; Homo sapiens, SMMC-7721, 48 h): 8.95 ± 0.27 µM; IC50 [2, 5]: 28.7 ± 1.21 µM"
Cc1ccc(/C=C/S(=O)(=O)F)cc1 [Compound 65],–,32.7 ± 1.22 µM,–,30.5 ± 1.29 µM,–
O=S(=O)(F)/C=C/c1cc2ccccc2s1 [Compound 42],–,–,–,–,IC50 inhibitory activity against telomerase (telomerase): no
CC(=O)c1ccc(/C=C/S(=O)(=O)F)cc1 [Compound 11],–,10.6 ± 0.9 µM,65.8 ± 1.79 µM,5.66 ± 0.28 µM,–
O=S(=O)(F)/C=C/c1ccccc1Cl [Compound 78],–,26.3 ± 2.35 µM,–,35.2 ± 1.28 µM,–
CSc1ccc(/C=C/S(=O)(=O)F)cc1 [Compound 64],–,23.9 ± 1.37 µM,–,38.3 ± 0.9 µM,–
O=S(=O)(F)/C=C/c1ccc(C(F)(F)F)nc1 [Compound 79],–,23 ± 1.75 µM,–,–,–
O=S(=O)(F)/C=C/c1cc(F)nc(F)c1 [Compound 59],44.2 ± 2.26 µM,–,–,–,IC50 (human melanoma cell A375; [3]): 58 ± 1.71 µM
O=[N+]([O-])c1cccc(/C=C/S(=O)(=O)F)c1 [Compound 22],2.25 ± 0.3 µM,–,–,–,"IC50 (human melanoma cell A375; [3]): 4.14 ± 0.21 µM; IC50 ([1]; Homo sapiens, SMMC-7721, 48 h): 26.1 ± 0.73 µM; IC50 [2, 5]: 6.54 ± 0.74 µM"
O=Cc1ccc(/C=C/S(=O)(=O)F)o1 [Compound 37],–,9.09 ± 0.81 µM,35.1 ± 0.49 µM,21.5 ± 1.29 µM,–

Compound,IC50 (telomerase; [4]),IC50 (human melanoma cell A375; [6]),"IC50 [1, 7]","IC50 [2, 8]",other results
Cc1cccc(/C=C/S(=O)(=O)F)c1 [Compound 17],10.1 ± 1.13 µM,–,–,–,"IC50 (human melanoma cell A375; [3]): 12.1 ± 1.19 µM; IC50 [2, 5]: 10.6 ± 0.91 µM"
O=S(=O)(F)/C=C/c1cccc(Br)c1 [Compound 19],–,20.1 ± 0.9 µM,–,12.1 ± 1.52 µM,–
CS(=O)(=O)c1cccc(/C=C/S(=O)(=O)F)c1 [Compound 81],2.55 ± 0.4 µM,–,–,–,"IC50 (human melanoma cell A375; [3]): 7.89 ± 0.56 µM; IC50 ([1]; Homo sapiens, SMMC-7721, 48 h): 34.9 ± 1.7 µM; IC50 [2, 5]: 27.8 ± 1.32 µM"
O=S(=O)(F)/C=C/c1ccsc1 [Compound 41],–,14.6 ± 1.2 µM,28.8 ± 0.75 µM,10.6 ± 0.46 µM,–
COc1ccc(/C=C/S(=O)(=O)F)cc1 [Compound 4],–,16.9 ± 1.22 µM,73.8 ± 1.7 µM,24.7 ± 2.15 µM,–
COc1cccc(/C=C/S(=O)(=O)F)c1 [Compound 16],–,21.1 ± 0.87 µM,45.6 ± 1.29 µM,28.5 ± 1.78 µM,–
Cc1ccc(S(=O)(=O)n2cc(/C=C/S(=O)(=O)F)c3ccccc32)cc1 [Compound 44],15.2 ± 1.56 µM,–,–,–,"IC50 (human melanoma cell A375; [3]): 5.34 ± 0.3 µM; IC50 ([1]; Homo sapiens, SMMC-7721, 48 h): 9.24 ± 0.4 µM"
O=S(=O)(F)/C=C/c1cccc2c1oc1ccccc12 [Compound 38],–,40.8 ± 1.39 µM,–,83.2 ± 2.91 µM,–
O=C(O)c1ccc(/C=C/S(=O)(=O)F)cc1 [Compound 62],39.9 ± 1.4 µM,–,–,–,"IC50 (human melanoma cell A375; [3]): 45.1 ± 1.4 µM; IC50 [2, 5]: 86.2 ± 2.44 µM"
Cc1ccc(S(=O)(=O)n2ccc3cc(/C=C/S(=O)(=O)F)ccc32)cc1 [Compound 45],–,–,–,–,"IC50 (human melanoma cell A375; [3]): 8.61 ± 0.28 µM; IC50 ([1]; Homo sapiens, SMMC-7721, 48 h): 15.6 ± 0.78 µM"
Cc1cc(C)cc(/C=C/S(=O)(=O)F)c1 [Compound 28],–,10.2 ± 0.75 µM,16.7 ± 0.65 µM,20.6 ± 2.11 µM,–
O=Cc1cccc(/C=C/S(=O)(=O)F)c1 [Compound 60],–,10.7 ± 0.8 µM,–,–,–
O=S(=O)(F)/C=C/C=C/c1ccc(Br)cc1 [Compound 51],–,42 ± 1.6 µM,31.2 ± 1.33 µM,20.9 ± 1.09 µM,–
Cc1cc(/C=C/S(=O)(=O)F)ccc1Br [Compound 29],–,14.3 ± 0.91 µM,–,16.9 ± 0.87 µM,–
Cc1ccccc1/C=C/S(=O)(=O)F [Compound 24],–,24.5 ± 1.55 µM,52.8 ± 1.44 µM,41.8 ± 2.97 µM,–
O=S(=O)(F)/C=C/c1cccc(O)c1 [Compound 34],–,5.37 ± 0.6 µM,23 ± 0.45 µM,23.4 ± 0.88 µM,–
O=S(=O)(F)/C=C/c1ccc(Oc2ccccc2)cc1 [Compound 3],–,27 ± 0.82 µM,–,31.8 ± 1.44 µM,–
O=S(=O)(F)/C=C/C=C/c1ccccc1C(F)(F)F [Compound 54],–,17.5 ± 1.52 µM,19 ± 0.71 µM,28.5 ± 1.16 µM,–
O=S(=O)(F)/C=C/C=C/c1ccccc1Cl [Compound 53],–,17.5 ± 0.98 µM,57.3 ± 2.01 µM,28.5 ± 1.14 µM,–
CCOC(=O)c1ccc(/C=C/S(=O)(=O)F)cc1 [Compound 14],–,50 ± 1.78 µM,27 ± 1.01 µM,3.6 ± 0.3 µM,–
COc1ccccc1/C=C/S(=O)(=O)F [Compound 23],–,25.3 ± 1.33 µM,–,33.8 ± 2.89 µM,–
O=S(=O)(F)/C=C/c1cccc2ccccc12 [Compound 30],–,28 ± 1.31 µM,2.29 ± 0.17 µM,25.1 ± 0.99 µM,–
